Data published in patent US12509444B2, “Compounds and methods for CD73 modulation and indications therefor” (Plexxikon Inc., priority 2019, dated 2025).
pIC50: −log10 of the molar value.

Key:
[1] = molecular target: T1, Human CD73 (amino acid residues 27-549) (Homo sapiens, UniProt P21589); experiment: CD73 enzymatic assay (luciferase-based indirect assay, CellTiter-Glo); assay type: biochemical; settings: 0.4 nM CD73, 150 μM AMP, 1 hour at room temperature
T1 construct: Human CD73 (amino acid residues 27-549); His tag (N); made in house; host or cells: E. coli
T1 sequence (P21589 27-549): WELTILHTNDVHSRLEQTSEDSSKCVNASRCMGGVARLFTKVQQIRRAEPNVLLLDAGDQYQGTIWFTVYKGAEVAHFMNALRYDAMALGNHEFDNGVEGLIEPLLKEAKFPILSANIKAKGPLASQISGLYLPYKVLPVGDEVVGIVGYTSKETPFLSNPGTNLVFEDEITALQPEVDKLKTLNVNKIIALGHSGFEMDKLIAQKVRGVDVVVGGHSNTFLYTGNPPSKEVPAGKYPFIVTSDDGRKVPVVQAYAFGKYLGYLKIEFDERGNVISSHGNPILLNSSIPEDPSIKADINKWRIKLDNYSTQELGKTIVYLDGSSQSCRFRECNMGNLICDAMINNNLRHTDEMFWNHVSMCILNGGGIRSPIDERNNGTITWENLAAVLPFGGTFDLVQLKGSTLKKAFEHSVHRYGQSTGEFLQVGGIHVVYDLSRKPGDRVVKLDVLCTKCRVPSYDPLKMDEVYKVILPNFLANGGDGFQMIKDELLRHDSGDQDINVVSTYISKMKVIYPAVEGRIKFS
Outline: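 His-tagged human CD73 (27-549) from E. coli, 0.4 nM, with 150 μM AMP in 50 mM HEPES pH 7.4, 0.01% Tween 20; 1 h at room temperature. AMP remaining read by CellTiter-Glo 2.0 luminescence with 1 μM final ATP after 30 min. IC50 from nonlinear regression of % inhibition.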

human CD73 = molecular target: T2, human CD73 (Homo sapiens, UniProt P21589); experiment: Inhibitor activity against CD73 in cell based assay (CD73 expressing CHO-K1 cells); settings: CHO-K1 cells expressing human CD73, 150 μM AMP, 4 hours of incubation; read-out: CHO-K1 CELL VARIANT: CD73 IC50
T2 construct: expressed in transfected cells
T2 sequence (P21589 27-549): T1 sequence (P21589 27-549)
Outline: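 Stably transfected CHO-K1 cells expressing human CD73 (1×10^4/well) incubated 4 h with compound (8-point 1:3 titration, top 10 μM final, 0.2% DMSO) and 150 μM AMP. Residual AMP in supernatant measured by CellTiter-Glo luminescence with 1 μM ATP after 30 min at room temperature; IC50 by nonlinear regression of percent inhibition vs high/low controls.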

SMILES	pIC50 [1]	pIC50 (human CD73)
O=C(NC1CCC(F)(F)CC1)O[C@@H]1CN(c2cn[nH]c(=O)c2Cl)C[C@H]1F [P-0141, (3R,4R)-1-(5-chloro-6-oxo-1,6-dihydropyridazin-4-yl)-4-fluoropyrrolidin-3-yl (4,4-difluorocyclohexyl)carbamate]	5.00 to 9.00	5.00 to 9.00
CCCS(=O)(=O)N[C@H]1CC[C@H](NC(=O)O[C@@H]2CCN(c3cn[nH]c(=O)c3Cl)C2)CC1 [P-0142, (R)-1-(5-chloro-6-oxo-1,6-dihydropyridazin-4-yl)pyrrolidin-3-yl ((1r,4R)-4-(propylsulfonamido)cyclohexyl)carbamate]	5.00 to 9.00	5.00 to 9.00
O=C(NC1CCC(C(F)(F)F)CC1)O[C@@H]1CCN(c2cn[nH]c(=O)c2Cl)C1 (stereo partly drawn) [P-0143, (R)-1-(5-chloro-6-oxo-1,6-dihydropyridazin-4-yl)pyrrolidin-3-yl (4-(trifluoromethyl)cyclohexyl) carbamate]	5.00 to 9.00	5.00 to 9.00
CS(=O)(=O)N[C@H]1CC[C@H](NC(=O)O[C@@H]2CCN(c3cn[nH]c(=O)c3C#N)C2)CC1 [P-0144, (R)-1-(5-cyano-6-oxo-1,6-dihydropyridazin-4-yl)pyrrolidin-3-yl ((1r,4R)-4-(methylsulfonamido)cyclohexyl)carbamate]	5.00 to 9.00	5.00 to 9.00
N#Cc1c(N2CC[C@@H](OC(=O)NC3CCC(F)(F)CC3)C2)cn[nH]c1=O [P-0145, (R)-1-(5-cyano-6-oxo-1,6-dihydropyridazin-4-yl)pyrrolidin-3-yl (4,4-difluorocyclohexyl)carbamate]	5.00 to 9.00	5.00 to 9.00
O=C(NC1CCN(C(=O)NC2CC2)CC1)O[C@@H]1CCN(c2cn[nH]c(=O)c2Cl)C1 [P-0146, (R)-1-(5-chloro-6-oxo-1,6-dihydropyridazin-4-yl)pyrrolidin-3-yl (1-(cyclopropylcarbamoyl)piperidin-4-yl)carbamate]	5.00 to 9.00	5.00 to 9.00
O=C(NC1CCN(C(=O)NC2CCCCC2)CC1)O[C@@H]1CCN(c2cn[nH]c(=O)c2Cl)C1 [P-0147, (R)-1-(5-chloro-6-oxo-1,6-dihydropyridazin-4-yl)pyrrolidin-3-yl (1-(cyclohexylcarbamoyl)piperidin-4-yl)carbamate]	5.00 to 9.00	5.00 to 9.00
O=C(NC1CCN(C(=O)Nc2ccc(F)cc2)CC1)O[C@@H]1CCN(c2cn[nH]c(=O)c2Cl)C1 [P-0148, (R)-1-(5-chloro-6-oxo-1,6-dihydropyridazin-4-yl)pyrrolidin-3-yl (1-((4-fluorophenyl)carbamoyl)piperidin-4-yl)carbamate]	5.00 to 9.00	5.00 to 9.00
NC(=O)N1CCC(NC(=O)O[C@@H]2CCN(c3cn[nH]c(=O)c3Cl)C2)CC1 [P-0149, (R)-1-(5-chloro-6-oxo-1,6-dihydropyridazin-4-yl)pyrrolidin-3-yl (1-carbamoylpiperidin-4-yl)carbamate]	5.00 to 9.00	5.00 to 9.00
CS(=O)(=O)N1CCC(NC(=O)O[C@@H]2CCN(c3cn[nH]c(=O)c3Cl)C2)CC1 [P-0150, (R)-1-(5-chloro-6-oxo-1,6-dihydropyridazin-4-yl)pyrrolidin-3-yl (1-(methylsulfonyl)piperidin-4-yl)carbamate]	5.00 to 9.00	5.00 to 9.00
N#Cc1c(N2CC[C@@H](OC(=O)NC3CCN(C4CCCC4)CC3)C2)cn[nH]c1=O [P-0151, (R)-1-(5-cyano-6-oxo-1,6-dihydropyridazin-4-yl)pyrrolidin-3-yl (1-cyclopentylpiperidin-4-yl)carbamate]	5.00 to 9.00	5.00 to 9.00
O=C(N[C@H]1CC[C@H](NS(=O)(=O)C2CC2)CC1)O[C@@H]1CCN(c2cn[nH]c(=O)c2Cl)C1 [P-0152, (R)-1-(5-chloro-6-oxo-1,6-dihydropyridazin-4-yl)pyrrolidin-3-yl ((1r,4R)-4-(cyclopropanesulfonamido)cyclohexyl)carbamate]	5.00 to 9.00	5.00 to 9.00
O=C(N[C@H]1CC[C@H](NS(=O)(=O)NC2CCCC2)CC1)O[C@@H]1CCN(c2cn[nH]c(=O)c2Cl)C1 [P-0153, (R)-1-(5-chloro-6-oxo-1,6-dihydropyridazin-4-yl)pyrrolidin-3-yl ((1r,4R)-4-((N-cyclopentylsulfamoyl)amino)cyclohexyl)carbamate]	5.00 to 9.00	5.00 to 9.00
Cc1c(N2CC[C@@H](OC(=O)NC3CCC(F)(F)C3)C2)cn[nH]c1=O (stereo partly drawn) [P-0154, (R)-1-(5-methyl-6-oxo-1,6-dihydropyridazin-4-yl)pyrrolidin-3-yl (3,3-difluorocyclopentyl)carbamate]	5.00 to 9.00	5.00 to 9.00
Cn1ncc(N2CC[C@@H](OC(=O)NC3CCCC3)C2)c(Cl)c1=O [P-0155, (R)-1-(5-chloro-1-methyl-6-oxo-1,6-dihydropyridazin-4-yl)pyrrolidin-3-yl cyclopentylcarbamate]	5.00 to 9.00	5.00 to 9.00
NC(=O)N[C@H]1CC[C@H](NC(=O)O[C@@H]2CCN(c3cn[nH]c(=O)c3Cl)C2)CC1 [P-0156, (R)-1-(5-chloro-6-oxo-1,6-dihydropyridazin-4-yl)pyrrolidin-3-yl ((1r,4R)-4-ureidocyclohexyl)carbamate]	5.00 to 9.00	5.00 to 9.00
O=CN[C@H]1CC[C@H](NC(=O)O[C@@H]2CCN(c3cn[nH]c(=O)c3Cl)C2)CC1 [P-0157, (R)-1-(5-chloro-6-oxo-1,6-dihydropyridazin-4-yl)pyrrolidin-3-yl ((1r,4R)-4-formamidocyclohexyl) carbamate]	5.00 to 9.00	5.00 to 9.00
O=C(N[C@H]1CC[C@H](NS(=O)(=O)c2ccccc2)CC1)O[C@@H]1CCN(c2cn[nH]c(=O)c2Cl)C1 [P-0158, (R)-1-(5-chloro-6-oxo-1,6-dihydropyridazin-4-yl)pyrrolidin-3-yl ((1r,4R)-4-(phenylsulfonamido)cyclohexyl)carbamate]	5.00 to 9.00	5.00 to 9.00
NCC(=O)N1CCC(NC(=O)O[C@@H]2CCN(c3cn[nH]c(=O)c3Cl)C2)CC1 [P-0159, (R)-1-(5-chloro-6-oxo-1,6-dihydropyridazin-4-yl)pyrrolidin-3-yl (1-glycylpiperidin-4-yl)carbamate]	5.00 to 9.00	5.00 to 9.00
CC(C)(C)OC(=O)NCC(=O)N1CCC(NC(=O)O[C@@H]2CCN(c3cn[nH]c(=O)c3Cl)C2)CC1 [P-0160, (R)-1-(5-chloro-6-oxo-1,6-dihydropyridazin-4-yl)pyrrolidin-3-yl (1-((tert-butoxycarbonyl)glycyl)piperidin-4-yl)carbamate]	5.00 to 9.00	5.00 to 9.00
CC(=O)NCC(=O)N1CCC(NC(=O)O[C@@H]2CCN(c3cn[nH]c(=O)c3Cl)C2)CC1 [P-0161, (R)-1-(5-chloro-6-oxo-1,6-dihydropyridazin-4-yl)pyrrolidin-3-yl (1-(acetylglycyl)piperidin-4-yl)carbamate]	5.00 to 9.00	5.00 to 9.00
CCOC(=O)NCC(=O)N1CCC(NC(=O)O[C@@H]2CCN(c3cn[nH]c(=O)c3Cl)C2)CC1 [P-0162, ethyl (R)-(2-(4-((((1-(5-chloro-6-oxo-1,6-dihydropyridazin-4-yl)pyrrolidin-3-yl)oxy)carbonyl)amino)piperidin-1-yl)-2-oxoethyl) carbamate]	5.00 to 9.00	5.00 to 9.00
CS(=O)(=O)NCC(=O)N1CCC(NC(=O)O[C@@H]2CCN(c3cn[nH]c(=O)c3Cl)C2)CC1 [P-0163, (R)-1-(5-chloro-6-oxo-1,6-dihydropyridazin-4-yl)pyrrolidin-3-yl (1-((methylsulfonyl)glycyl)piperidin-4-yl)carbamate]	5.00 to 9.00	5.00 to 9.00
